From patent US20240057587A1, “ORGANIC AMMONIUM SALT AND HYDROGEN-BONDING MATERIAL TREATMENT AGENT USING SAME” (MIYOSHI OIL & FAT CO.,LTD., priority 2019, published 2024) come the findings set out here.

Where two headings read alike, the source gives them in different places.

For data set [1] the following is noted: for Redispersibility Titanium oxide: dispersion liquid dried at 50° C. under reduced pressure for three hours, 0.50 g water added, remixed, visual.
The nature of data set [2]: Metal oxide dispersibility test (titanium oxide). The data set is classed as physicochemical. Conditions: 0.25 g compound, 0.50 g water, 0.10 g titanium oxide (IV); for Titanium oxide dispersibility: visual.
Data set [3] can be described thus: Organic dye dispersibility test. The data set is classed as physicochemical. Conditions: 0.2 g compound, 0.7 g water; for Dye dispersibility: 0.1 g Vali Fast Black 3830, ultrasonic dispersion, after 24 hours, visual.
The nature of data set [4]: Metal oxide dispersibility test (zirconium oxide). The data set is classed as physicochemical. Conditions: 0.25 g compound, 0.50 g water, 0.10 g zirconium oxide (IV); for Zirconium oxide dispersibility: visual.
The conditions of data set [5]: for Redispersibility Dye: Vali Fast Black 3830 dispersion liquid dried at 50° C. under reduced pressure for three hours, 0.7 g water added, remixed, visual.
The conditions of data set [6]: 0.25 g compound, 0.50 g water, 0.10 g zinc oxide; for Zinc oxide dispersibility: visual.
The conditions of data set [7]: 0.25 g compound, 0.50 g water, 0.10 g barium titanate; for Barium titanate dispersibility: visual.
For data set [8] the following is noted: for Redispersibility Zirconium oxide: dispersion liquid dried at 50° C. under reduced pressure for three hours, 0.50 g water added, remixed, visual.
In data set [9] the target is T1, urease (Canavalia ensiformis, UniProt P07374). The data set is classed as biochemical, sword bean.
T1 sequence (P07374 whole entry, looked up): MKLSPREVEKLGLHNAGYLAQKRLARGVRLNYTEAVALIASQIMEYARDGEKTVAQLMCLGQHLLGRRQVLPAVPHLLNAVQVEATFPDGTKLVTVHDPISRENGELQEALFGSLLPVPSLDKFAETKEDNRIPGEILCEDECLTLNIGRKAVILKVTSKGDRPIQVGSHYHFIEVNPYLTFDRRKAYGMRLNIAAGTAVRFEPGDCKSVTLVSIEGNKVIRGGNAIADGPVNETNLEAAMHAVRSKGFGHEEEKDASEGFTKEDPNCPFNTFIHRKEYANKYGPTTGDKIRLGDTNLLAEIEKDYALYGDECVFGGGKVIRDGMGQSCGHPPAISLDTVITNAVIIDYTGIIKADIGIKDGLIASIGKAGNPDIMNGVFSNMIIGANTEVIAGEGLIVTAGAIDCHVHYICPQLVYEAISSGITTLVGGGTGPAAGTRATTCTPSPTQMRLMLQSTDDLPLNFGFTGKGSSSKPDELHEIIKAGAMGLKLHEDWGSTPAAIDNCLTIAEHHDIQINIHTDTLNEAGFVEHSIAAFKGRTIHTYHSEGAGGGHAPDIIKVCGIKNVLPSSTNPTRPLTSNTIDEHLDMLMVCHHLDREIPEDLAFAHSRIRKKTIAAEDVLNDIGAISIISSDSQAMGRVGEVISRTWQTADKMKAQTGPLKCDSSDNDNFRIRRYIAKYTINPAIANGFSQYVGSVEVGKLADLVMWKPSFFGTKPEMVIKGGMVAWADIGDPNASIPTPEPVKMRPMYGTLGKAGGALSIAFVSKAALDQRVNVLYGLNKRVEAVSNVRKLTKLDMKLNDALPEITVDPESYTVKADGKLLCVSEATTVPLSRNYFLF
Data set [10] deals with T2, cytochrome C (Equus caballus, UniProt P00004).
T2 construct: a reagent produced by NACALAI TESQUE, INC; (Horse Heart, molecular weight 12384) was used; purchased NACALAI TESQUE, INC; host or cells: horse heart (tissue origin)
T2 sequence (P00004 whole entry): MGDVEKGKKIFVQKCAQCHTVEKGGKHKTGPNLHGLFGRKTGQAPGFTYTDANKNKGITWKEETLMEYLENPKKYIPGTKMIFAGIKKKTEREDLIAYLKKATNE
Briefly: Protein long-term stability, 50% aqueous solution. Details: species or system Horse. The protocol: At first, changes in amide absorption by IR spectrum were precisely observed, and there were confirmed the higher-order structures of protein (turn, α-helix, random coil, β-sheet). The amide I region (1,600 to 1,700 cm^−1) and the amide II region (1,500 to 1,600 cm^−1) were measured by ATR method using a Fourier transform infrared spectrophotometer (FT/IR-6100 by JASCO Corporation), and peaks were then detected based on a difference(s) between a cytochrome C-free organic ammonium salt sample (blank) and a cytochrome C-containing organic ammonium salt sample (sample).
Further, the activity state of cytochrome C (Fe^2+: reduced form, Fe^3+: oxidized form) was confirmed via absorptions in UV spectrum. The measurement was conducted using an ultraviolet-visible spectrophotometer and a quartz cell having an optical path width of 2 mm, immediately after diluting the cytochrome C-containing organic ammonium salt sample to 1% with a 50 mM phosphate buffer of pH 7.4 (prepared using 50 mM potassium dihydrogen phosphate and 50 mM dipotassium hydrogen phosphate).

Data set [11] has as its target T1, urease. It counts as biochemical, sword bean. This is another data set of the same source.
Data set [12] deals with T2, cytochrome C. In words: Protein long-term stability (IR and UV spectrum), solid sample. Details: species or system Horse.
For data set [13], the target named is T1, urease. It counts as biochemical, sword bean. This is another data set of the same source.
Data set [14] can be described thus: Carbon nanotube dispersibility test. It counts as physicochemical. Conditions: 0.25 g compound, 0.75 g water, 0.025 g carbon nanotubes.

As to `NC(CO)(CO)CO` [Working example 109], the “Redispersibility Titanium oxide” value in [1] is recorded as “○ ○ ○ ○”. The Titanium oxide dispersibility result in [2] is “○ ○ ○ ○”. Besides, the Dye dispersibility result in data set [3] is “○ ○ ○ ○”. Besides, the Zirconium oxide dispersibility entry in data set [4] was “○ ○ ○ ○”. In [5], the “Redispersibility Dye” value is on record as “○ ○ ○ ○”. In addition, the Zinc oxide dispersibility entry in [6] is reported as “○ ○ ○ ○”. In [7], the Barium titanate dispersibility result is recorded as “○ ○ ○ ○”. Besides, the “Redispersibility Zirconium oxide” value in data set [8] is “○ ○ ○ ○”.

With `NC(CO)(CO)CO` [Working example 36], in data set [1], the “Redispersibility Titanium oxide” value is reported as “○ ○ ○ ○”. Further, in data set [2], the Titanium oxide dispersibility result is given as “○ ○ ○ ○”. For the same compound, the Dye dispersibility result in data set [3] was “○ ○ ○ ○”. In addition, the “Enzyme activity retention rate(%) (after 30 days) Stabilizer: Enzyme = 1:1” value (“Enzyme activity retention rate(%) … Enzyme = 1:1” below) in data set [9] (urease in 50 wt % aqueous solution of compound, 40° C., 80% RH, after 30 days, Stabilizer:Enzyme = 1:1) worked out at 39%; in [11] (solid sample, 40° C., 80% RH, after 30 days, Stabilizer:Enzyme = 1:1), 41%. The “Protein long-term stability (after 30 days) Stabilize:Protein = 1:1” value in data set [10] (cytochrome C in 50 wt % aqueous solution of compound, 40° C., after 30 days, 1:1) is reported as “○ ○ ○”. Besides, in data set [4], the Zirconium oxide dispersibility entry is on record as “○ ○ ○ ○”. Further, the “Enzyme activity retention rate(%) (after 30 days) Stabilizer: Enzyme = 0.1:1” value in data set [11] (solid sample, 40° C., 80% RH, after 30 days, Stabilizer:Enzyme = 0.1:1) was 27%. Besides, the “Enzyme activity retention rate(%) (after 30 days) Stabilizer: Enzyme = 10:1” value in data set [11] (solid sample, 40° C., 80% RH, after 30 days, Stabilizer:Enzyme = 10:1) was determined as 45%. In addition, in data set [5], the “Redispersibility Dye” value was “○ ○ ○ ○”. For the same compound, in data set [6], the Zinc oxide dispersibility result is recorded as “○ ○ ○ ○”. Besides, the “Protein long-term stability (after 30 days) Stabilizer: Protein = 0.1:1” value in [12] (cytochrome C, solid sample, 40° C., 80% RH, after 30 days, Stabilizer:Protein = 0.1:1) is reported as “◯”. Also, the “Protein long-term stability (after 30 days) Stabilizer: Protein = 1:1” value in [12] (cytochrome C, solid sample, 40° C., 80% RH, after 30 days, Stabilizer:Protein = 1:1) is “◯”. The “Protein long-term stability (after 30 days) Stabilizer: Protein = 10:1” value in data set [12] (cytochrome C, solid sample, 40° C., 80% RH, after 30 days, Stabilizer:Protein = 10:1) is “◯”. Further, the Barium titanate dispersibility result in data set [7] was “○ ○ ○ ○”. For the same compound, the “Redispersibility Zirconium oxide” value in data set [8] is listed as “○ ○ ○ ○”. The “Enzyme activity retention rate (%) (after 30 days) Stabilizer:Enzyme = 1:1, Mixed by mortar” value in data set [13] (urease, solid sample mixed by mortar, 40° C., 80% RH, after 30 days, 1:1) is listed as 7%. In addition, in data set [13] (urease, solid sample, solvent distilled away from dissolution solution, 40° C., 80% RH, after 30 days, 1:1), the “Enzyme activity retention rate (%) (after 30 days) Stabilizer:Enzyme = 1:1, Solvent distilled away from dissolution solution” value was 41%.

As for `CCCC[N+](CCCC)(CCCC)CCCC.[Br-]` [Comparative example 12, tetra-n-butylammonium bromide, reference compound], the “dispersed state after redispersion (visual)” value is given as “precipitates were observed immediately after performing mixing with the mixer” in data set [1] (dried titanium oxide dispersion, 0.50 g of water added); “precipitates were observed immediately after performing mixing with the mixer” in data set [5] (dried Vali Fast Black 3830 dispersion, 0.7 g of water added); “precipitates were observed immediately after performing mixing with the mixer” in data set [8] (dried zirconium oxide dispersion, 0.50 g of water added). Also, the “dispersed state of titanium oxide (visual)” value in data set [2] was “a low dispersibility was observed as titanium oxide had precipitated”. In data set [3] (0.1 g Vali Fast Black 3830, ultrasonic dispersion), the “mixed and dispersed state of organic dye after 24 hours (visual)” value was “the organic dye did not disperse, but precipitated”. In [4], the “dispersed state of zirconium oxide (visual)” value is “zirconium oxide immediately precipitated, and therefore did not disperse”. The “dispersed state of zinc oxide (visual)” value in data set [6] was “zinc oxide did not disperse, but immediately precipitated”. Also, in data set [7], the “dispersed state of barium titanate (visual)” value was “barium titanate did not disperse, but immediately precipitated”. Besides, in [14], the “dispersed state of carbon nanotubes (visual)” value is recorded as “the carbon nanotubes did not disperse, but precipitated”.

As for `Br.NC(CO)(CO)CO` [Working example 78], the “Enzyme activity retention rate(%) … Enzyme = 1:1” value in data set [9] amounted to 3%. For the same compound, the “Protein long-term stability (after 30 days) Stabilize:Protein = 1:1” value in data set [10] was “○ ○ ○”. For the same compound, in data set [11], the “Enzyme activity retention rate(%) (after 30 days) Stabilizer: Enzyme = 0.1:1” value is 3%, the “Enzyme activity retention rate(%) … Enzyme = 1:1” value is 4% and the “Enzyme activity retention rate(%) (after 30 days) Stabilizer: Enzyme = 10:1” value came to 18%. Further, in data set [12], the “Protein long-term stability (after 30 days) Stabilizer: Protein = 0.1:1” value is “◯”, the “Protein long-term stability (after 30 days) Stabilizer: Protein = 1:1” value is on record as “◯” and the “Protein long-term stability (after 30 days) Stabilizer: Protein = 10:1” value is “◯”. In addition, in data set [13], the “Enzyme activity retention rate (%) (after 30 days) Stabilizer:Enzyme = 1:1, Mixed by mortar” value came out at 0% and the “Enzyme activity retention rate (%) (after 30 days) Stabilizer:Enzyme = 1:1, Solvent distilled away from dissolution solution” value is on record as 24%.
